Reference: US20200123104A1, “PHARMACEUTICAL AGENT THAT BINDS THE P2X7 RECEPTOR” (Indiana University Research and Technology Corporation, priority 2017, published 2020)
Values joined by “and” are separate entries in the source; they are usually repeats but may differ in a detail not shown here. Equal entries are not always repeated.

Tests used:
[1] = in vivo; cited from earlier work
P2X7 receptor [2] = biological target: T1, P2X7 receptor (Homo sapiens, UniProt Q99572); conditions: read-out: P2X7 receptor affinity (KB) (converted); cited from earlier work
T1 sequence (Q99572 1-595): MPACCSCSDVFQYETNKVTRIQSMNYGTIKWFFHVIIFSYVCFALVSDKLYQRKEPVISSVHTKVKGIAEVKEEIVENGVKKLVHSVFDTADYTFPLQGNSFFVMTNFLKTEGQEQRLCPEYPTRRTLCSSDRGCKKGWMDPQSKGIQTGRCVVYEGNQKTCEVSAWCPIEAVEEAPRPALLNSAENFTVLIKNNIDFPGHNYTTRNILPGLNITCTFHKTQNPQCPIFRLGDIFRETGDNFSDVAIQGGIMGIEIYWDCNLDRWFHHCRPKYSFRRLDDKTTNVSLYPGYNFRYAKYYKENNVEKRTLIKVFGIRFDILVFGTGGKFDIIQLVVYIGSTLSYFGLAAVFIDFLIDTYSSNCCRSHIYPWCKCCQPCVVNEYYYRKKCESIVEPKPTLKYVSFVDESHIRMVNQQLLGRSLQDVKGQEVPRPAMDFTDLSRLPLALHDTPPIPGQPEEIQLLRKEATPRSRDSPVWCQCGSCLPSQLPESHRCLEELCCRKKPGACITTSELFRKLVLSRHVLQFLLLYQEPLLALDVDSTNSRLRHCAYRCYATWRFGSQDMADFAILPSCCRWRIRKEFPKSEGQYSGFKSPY

P2X7 receptor [3] = biological target: T1, P2X7 receptor; experiment: Competitive binding with [11C]GSK1482160 as reference tracer, membrane homogenate of HEK cells transfected with the human P2X7 gene; parameters: host or cells: HEK (human embryonic kidney) cells, membrane homogenate; conditions: HEK-hP2X7 membrane homogenate, [11C]GSK1482160 reference tracer
Protocol: Samples and control wells are run in triplicate at each concentration. After equilibrium has been reached, separation of bound from free [^11C]GSK1482160 radioligand is performed using a 96-well filtration apparatus. To estimate receptor association (kon) and dissociation (koff) rates, an association/dissociation kinetic experiment is performed. Association is measured as a function of time using cell membrane homogenate from HEK-P2X7 cells incubated with 2-4 concentrations of the ^18F-radioligand. Dissociation is measured in the presence of excess authentic standard once at steady state according to published methods. Radioactivity for both studies is measured on the filters (or filter plates) using a Perkin-Elmer TopCount Data is analyzed and plotted using GraphPad Prism to obtain Bmax and Kd values for the compound.

[4] = biological target: T2, human P2X7R (HEK293-hP2X7R) (Homo sapiens, UniProt Q99572); experiment: Saturation and kinetic radioligand binding of 11C-GSK1482160 to HEK293-hP2X7R
T2 construct: expressed in transfected cells; host or cells: HEK293
T2 sequence (Q99572 1-595): T1 sequence (Q99572 1-595)
Protocol: Receptor density (Bmax) is determined by a saturation approach as employed with each P2X7-receptor ligand employing [^11C]GSK1482160 as a convenient reference ligand that is expected to bind in the same region of the receptor. […] Samples and control wells are run in triplicate at each concentration. After equilibrium has been reached, separation of bound from free [^11C]GSK1482160 radioligand is performed using a 96-well filtration apparatus. To estimate receptor association (kon) and dissociation (koff) rates, an association/dissociation kinetic experiment is performed. Association is measured as a function of time using cell membrane homogenate from HEK-P2X7 cells incubated with 2-4 concentrations of the ^18F-radioligand. Dissociation is measured in the presence of excess authentic standard once at steady state according to published methods. Radioactivity for both studies is measured on the filters (or filter plates) using a Perkin-Elmer TopCount Data is analyzed and plotted using GraphPad Prism to obtain Bmax and Kd values for the compound.

Ki (P2X7 receptor [3]): 5.14 ± 0.85 nM | Kd ([4]; read-out: K): 1.15 ± 0.12 nM | koff ([4]; read-out: dissociation constant koff (converted)): 0.00425 s⁻¹
SMILES: [11CH3]N1C(=O)CC[C@H]1C(=O)NCc1cccc(C(F)(F)F)c1Cl [[^11C]GSK1482160]
crossing of the blood-brain barrier [1]: readily crosses the blood-brain barrier | Kb (P2X7 receptor [2]): 95.9 nM and 95 nM
